The structures appear in SMILES notation.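 All cell lines were grown in 96-well plates and treated with compound for 48 hours. GI50 is the concentration that inhibits growth by half. TGI denotes the concentration required for complete inhibition of growth.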

Some test systems named below: NCI/ADR-RES ovarian; CCRF-CEM leukemia; ACHN renal; SR leukemia; CAKI-1 renal; LOX IMVI melanoma; T-47D breast; SNB-19 CNS; OVCAR-5 ovarian; K-562 leukemia.
Assay in all cases: growth of human tumour cells (NCI), 48 h

As to `Cn1c(N)c(N=Nc2ccc(S(N)(=O)=O)cc2)c(=O)n(C)c1=O`, the TGI with NCI/ADR-RES ovarian, in the experiment with CCRF-CEM leukemia, in the experiment with ACHN renal, in the experiment with SR leukemia, in the experiment on CAKI-1 renal and in the experiment with LOX IMVI melanoma was greater than 100 µM in each case. For the same compound, the TGI with T-47D breast, in the experiment on SNB-19 CNS, in the experiment on OVCAR-5 ovarian and in the experiment with K-562 leukemia was greater than 100 µM in each case.
Regarding `O=C(NC(c1ccccc1)C(O)C(=O)OCc1ccc2c(c1)C(=O)c1ccccc1C2=O)c1ccccc1` (stereo not drawn), the TGI in the experiment on NCI/ADR-RES ovarian was 33.9 µM; in the experiment on CCRF-CEM leukemia it was greater than 100 µM; in the experiment with ACHN renal it was 43.7 µM; in the experiment on SR leukemia, greater than 88.3 µM; in the experiment with CAKI-1 renal, 20.1 µM; in the experiment with LOX IMVI melanoma, greater than 83.8 µM. Moreover, the TGI in the experiment with T-47D breast is 34.9 µM; in the experiment on SNB-19 CNS, 18.3 µM; in the experiment on OVCAR-5 ovarian it was 79.9 µM; in the experiment on K-562 leukemia, greater than 100 µM.
Consider `COc1c(C)cnc(Cn2cnc3c(Cl)nc(N)nc32)c1C`, for which the GI50 in the experiment with NCI/ADR-RES ovarian was 0.509 µM; in the experiment with CCRF-CEM leukemia, 0.097 µM; with ACHN renal, 0.289 µM; in the experiment with SR leukemia, 0.117 µM; in the experiment on CAKI-1 renal, 0.397 µM; with LOX IMVI melanoma, 0.29 µM. Also, the GI50 with T-47D breast is 0.11 µM; in the experiment with SNB-19 CNS it was 0.48 µM; in the experiment on OVCAR-5 ovarian, 1.13 µM; in the experiment on K-562 leukemia, 0.187 µM. The TGI in the experiment with NCI/ADR-RES ovarian was greater than 100 µM; in the experiment with CCRF-CEM leukemia, greater than 100 µM; in the experiment on ACHN renal, greater than 100 µM; in the experiment with SR leukemia it was greater than 100 µM; with CAKI-1 renal, greater than 100 µM; with LOX IMVI melanoma, 4.05 µM. For the same compound, the TGI in the experiment on T-47D breast, with SNB-19 CNS, with OVCAR-5 ovarian and in the experiment on K-562 leukemia was greater than 100 µM in each case.
On to `C#Cc1cccc(NC(=O)Nc2cccc(NC(=O)CCl)c2)c1`, for which the GI50 with NCI/ADR-RES ovarian was 20.1 µM; with CCRF-CEM leukemia, 10.9 µM; in the experiment with ACHN renal, 41.5 µM; in the experiment on SR leukemia, 12.9 µM; in the experiment with CAKI-1 renal it was greater than 82.5 µM; in the experiment with LOX IMVI melanoma, 13.2 µM. The GI50 in the experiment with T-47D breast is 32.1 µM; in the experiment on SNB-19 CNS it was greater than 82.5 µM; with OVCAR-5 ovarian, 21.9 µM; with K-562 leukemia it was 22.8 µM. Further, the TGI in the experiment on NCI/ADR-RES ovarian was 75.7 µM; in the experiment with CCRF-CEM leukemia, 68.6 µM; in the experiment with ACHN renal it was greater than 82.5 µM; in the experiment on SR leukemia, greater than 82.5 µM; in the experiment with CAKI-1 renal it was greater than 82.5 µM; in the experiment on LOX IMVI melanoma, 27 µM. The TGI was greater than 82.5 µM in the experiment with T-47D breast, greater than 82.5 µM in the experiment with SNB-19 CNS, 63.9 µM in the experiment with OVCAR-5 ovarian and greater than 82.5 µM with K-562 leukemia.
For `Cc1ccc(SCN2CCCCC2)cc1` (tested in a mixture with another compound), the TGI was 57.5 µM in the experiment with NCI/ADR-RES ovarian; 6.59 µM in the experiment on CCRF-CEM leukemia; 28.7 µM with ACHN renal; 25.6 µM with SR leukemia; 26.3 µM in the experiment with CAKI-1 renal; 14.3 µM in the experiment on LOX IMVI melanoma. In addition, the TGI in the experiment on T-47D breast was greater than 100 µM; in the experiment with SNB-19 CNS, 49.9 µM; in the experiment on OVCAR-5 ovarian, 25.8 µM; in the experiment with K-562 leukemia, 46.3 µM.
Regarding `CN(C)c1ccc(/C=C/C(=O)c2ccc(Nc3nc(Nc4ccc(F)cc4)nc(Nc4ccc(Cl)cc4)n3)cc2)cc1`, the GI50 is 3.56 µM in the experiment on NCI/ADR-RES ovarian; 2.57 µM with CCRF-CEM leukemia; 6.13 µM in the experiment with ACHN renal; 1.06 µM in the experiment on SR leukemia; 14.6 µM in the experiment with CAKI-1 renal; 8.93 µM in the experiment on LOX IMVI melanoma. In addition, the GI50 is 3.33 µM with T-47D breast, 17.1 µM in the experiment with SNB-19 CNS, 20.3 µM with OVCAR-5 ovarian and 2.77 µM with K-562 leukemia. For the same compound, the TGI in the experiment with NCI/ADR-RES ovarian was 33.4 µM; in the experiment with CCRF-CEM leukemia, 9.44 µM; with ACHN renal, greater than 100 µM; in the experiment on SR leukemia, 3.67 µM; in the experiment with CAKI-1 renal, greater than 100 µM; in the experiment with LOX IMVI melanoma, 47.2 µM. Also, the TGI with T-47D breast was 45.2 µM; in the experiment on SNB-19 CNS, greater than 100 µM; in the experiment on OVCAR-5 ovarian, greater than 100 µM; in the experiment on K-562 leukemia it was greater than 100 µM.
As to `CCCCc1ccc(C(N)=O)nc1`, the GI50 with NCI/ADR-RES ovarian, in the experiment on CCRF-CEM leukemia, with ACHN renal, in the experiment with SR leukemia, in the experiment with CAKI-1 renal and with LOX IMVI melanoma was greater than 100 µM each time. For the same compound, the GI50 in the experiment on T-47D breast, in the experiment with SNB-19 CNS, in the experiment with OVCAR-5 ovarian and in the experiment on K-562 leukemia was greater than 100 µM throughout. Also, the TGI in the experiment on NCI/ADR-RES ovarian, in the experiment with CCRF-CEM leukemia, in the experiment with ACHN renal, with SR leukemia, with CAKI-1 renal and in the experiment on LOX IMVI melanoma was greater than 100 µM each time. Moreover, the TGI in the experiment with T-47D breast, with SNB-19 CNS, in the experiment with OVCAR-5 ovarian and in the experiment on K-562 leukemia was greater than 100 µM throughout.
With `Cn1c(N)cc(=O)nc1N`, the TGI in the experiment with NCI/ADR-RES ovarian, with CCRF-CEM leukemia, in the experiment on ACHN renal, in the experiment with SR leukemia, in the experiment on CAKI-1 renal and with LOX IMVI melanoma was greater than 100 µM each time. Also, the TGI in the experiment on T-47D breast, in the experiment with SNB-19 CNS, in the experiment with OVCAR-5 ovarian and with K-562 leukemia was greater than 100 µM throughout.
In the case of `CNCc1ccc(C)c(NC(=O)c2ccc(Nc3nc(-c4ccccc4)c4ccccc4n3)cc2)c1`, the GI50 in the experiment with NCI/ADR-RES ovarian is 2.25 µM; with CCRF-CEM leukemia, 2.07 µM; in the experiment on ACHN renal, 2.01 µM; in the experiment on SR leukemia, 1.79 µM; in the experiment on CAKI-1 renal, 1.87 µM; in the experiment with LOX IMVI melanoma it was 1.67 µM. In addition, the results for the GI50 in the experiment on T-47D breast, with OVCAR-5 ovarian and in the experiment on K-562 leukemia were 2.26 µM, 2.13 µM and 1.91 µM, respectively. The TGI with NCI/ADR-RES ovarian was 5.25 µM; with CCRF-CEM leukemia it was 5.43 µM; in the experiment with ACHN renal, 3.82 µM; in the experiment with SR leukemia, 4.86 µM; in the experiment on CAKI-1 renal, 3.57 µM; with LOX IMVI melanoma, 3.13 µM. Moreover, the TGI with T-47D breast turned out to be 5.59 µM; in the experiment on OVCAR-5 ovarian it was 4.56 µM; with K-562 leukemia, 4.54 µM.

Values taken from PubChem BioAssay (NCI).
